Measured values as given in ChEMBL document CHEMBL3390836, “Mannich- and LedererManasse-based analogues of the natural product S-(+)-curcuphenol as cancer proliferation and migration inhibitors” (Medchemcomm, 2012).

Experiments:
Type in all cases: functional
TK-10 [1] = assay: Cytotoxicity against human TK10 cells assessed as cell growth at 10^-6 M after 48 hrs by SRB assay relative to control; conditions: TK-10, 48 h, read-out: Activity
MDA-MB-435 [2] = assay: Cytotoxicity against human MDA-MB-435 cells after 48 hrs by SRB assay; conditions: MDA-MB-435, 48 h; for CC50: read-out: LC50 (the source's name)
A498 = assay: Cytotoxicity against human A498 cells assessed as cell growth at 10^-6 M after 48 hrs by SRB assay relative to control; conditions: A498, 48 h, read-out: Activity
NCI-H226 [3] = assay: Cytotoxicity against human NCI-H226 cells assessed as cell growth at 10^-4 M after 48 hrs by SRB assay relative to control; conditions: NCI-H226, 48 h, read-out: Activity
[4] = Cytotoxicity against human EKVX cells assessed as cell growth at 10^-4 M after 48 hrs by SRB assay relative to control; conditions: read-out: Activity
SF-539 [5] = assay: Cytotoxicity against human SF539 cells assessed as cell growth at 10^-8 M after 48 hrs by SRB assay relative to control; conditions: SF-539, 48 h, read-out: Activity
[6] = Cytotoxicity against human SKOV3 cells after 48 hrs by SRB assay; conditions: SK-OV-3, 48 h
HOP-62 [7] = assay: Cytotoxicity against human HOP62 cells assessed as cell growth at 10^-8 M after 48 hrs by SRB assay relative to control; conditions: HOP-62, 48 h, read-out: Activity
SK-MEL-5 = assay: Cytotoxicity against human SK-MEL-5 cells assessed as cell growth at 10^-8 M after 48 hrs by SRB assay relative to control; conditions: SK-MEL-5, 48 h, read-out: Activity
ACHN = assay: Cytotoxicity against human ACHN cells assessed as cell growth at 10^-4 M after 48 hrs by SRB assay relative to control; conditions: read-out: Activity
MDA-MB-231 [8] = assay: Cytotoxicity against human MDA-MB-231 cells assessed as cell growth at 10^-8 M after 48 hrs by SRB assay relative to control; conditions: MDA-MB-231, 48 h, read-out: Activity
NCI-H226 [9] = assay: Cytotoxicity against human NCI-H226 cells assessed as cell growth at 10^-6 M after 48 hrs by SRB assay relative to control; conditions: NCI-H226, 48 h, read-out: Activity
LOX IMVI = assay: Cytotoxicity against human LOXIMVI cells assessed as cell growth at 10^-6 M after 48 hrs by SRB assay relative to control; conditions: read-out: Activity
[10] = Cytotoxicity against human OVCAR4 cells assessed as cell growth at 10^-7 M after 48 hrs by SRB assay relative to control; conditions: OVCAR-4, 48 h, read-out: Activity
MDA-MB-231 [11] = assay: Cytotoxicity against human MDA-MB-231 cells assessed as cell growth at 10^-6 M after 48 hrs by SRB assay relative to control; conditions: MDA-MB-231, 48 h, read-out: Activity
Malme-3M = assay: Cytotoxicity against human MALME-3M cells assessed as cell growth at 10^-7 M after 48 hrs by SRB assay relative to control; conditions: read-out: Activity
[12] = Cytotoxicity against human NCI-ADR-RES cells after 48 hrs by SRB assay
NCI-H23 = assay: Cytotoxicity against human NCI-H23 cells after 48 hrs by SRB assay; conditions: NCI-H23, 48 h
MCF7 = assay: Cytotoxicity against human MCF7 cells assessed as cell growth at 10^-4 M after 48 hrs by SRB assay relative to control; conditions: MCF7, 48 h, read-out: Activity
NCI-H322M = assay: Cytotoxicity against human NCI-H322M cells assessed as cell growth at 10^-4 M after 48 hrs by SRB assay relative to control; conditions: read-out: Activity
T47D = assay: Cytotoxicity against human T47D cells after 48 hrs by SRB assay
IGROV-1 = assay: Cytotoxicity against human IGROV1 cells assessed as cell growth at 10^-4 M after 48 hrs by SRB assay relative to control; conditions: IGROV-1, 48 h, read-out: Activity
SF-539 [13] = assay: Cytotoxicity against human SF539 cells after 48 hrs by SRB assay; conditions: SF-539, 48 h; for CC50: read-out: LC50 (the source's name)
MDA-MB-435 [14] = assay: Cytotoxicity against human MDA-MB-435 cells assessed as cell growth at 10^-8 M after 48 hrs by SRB assay relative to control; conditions: MDA-MB-435, 48 h, read-out: Activity
SNB-75 = assay: Cytotoxicity against human SNB75 cells assessed as cell growth at 10^-8 M after 48 hrs by SRB assay relative to control; conditions: SNB-75, 48 h, read-out: Activity
SN12C = assay: Cytotoxicity against human SN12C cells assessed as cell growth at 10^-4 M after 48 hrs by SRB assay relative to control; conditions: read-out: Activity
SNB-19 [15] = assay: Cytotoxicity against human SNB19 cells assessed as cell growth at 10^-6 M after 48 hrs by SRB assay relative to control; conditions: SNB-19, 48 h, read-out: Activity
SNB-19 [16] = assay: Cytotoxicity against human SNB19 cells assessed as cell growth at 10^-8 M after 48 hrs by SRB assay relative to control; conditions: SNB-19, 48 h, read-out: Activity
U-251 [17] = assay: Cytotoxicity against human U251 cells assessed as cell growth at 10^-7 M after 48 hrs by SRB assay relative to control; conditions: U-251, 48 h, read-out: Activity
NCI-H460 = assay: Cytotoxicity against human NCI-H460 cells after 48 hrs by SRB assay; conditions: NCI-H460, 48 h; for CC50: read-out: LC50 (the source's name)
TK-10 [18] = assay: Cytotoxicity against human TK10 cells assessed as cell growth at 10^-7 M after 48 hrs by SRB assay relative to control; conditions: TK-10, 48 h, read-out: Activity
HOP-62 [19] = assay: Cytotoxicity against human HOP62 cells assessed as cell growth at 10^-6 M after 48 hrs by SRB assay relative to control; conditions: HOP-62, 48 h, read-out: Activity
COLO 205 = assay: Cytotoxicity against human COLO205 cells after 48 hrs by SRB assay; conditions: COLO 205, 48 h; for CC50: read-out: LC50 (the source's name)
SW-620 = assay: Cytotoxicity against human SW620 cells assessed as cell growth at 10^-8 M after 48 hrs by SRB assay relative to control; conditions: SW-620, 48 h, read-out: Activity
[20] = Cytotoxicity against human HCT116 cells assessed as cell growth at 10^-7 M after 48 hrs by SRB assay relative to control; conditions: HCT-116, 48 h, read-out: Activity
U-251 [21] = assay: Cytotoxicity against human U251 cells assessed as cell growth at 10^-6 M after 48 hrs by SRB assay relative to control; conditions: U-251, 48 h, read-out: Activity

COc1ccc(CCN2COc3c([C@@H](C)CCC=C(C)C)ccc(C)c3C2)cc1OC
growth at 1 µM (TK-10 [1]): 89% | GI50 (MDA-MB-435 [2]): 3.11 µM | TGI (MDA-MB-435 [2]): 10.9 µM | CC50 (MDA-MB-435 [2]): 44.9 µM | growth at 1 µM (A498): 68% | growth at 100 µM (NCI-H226 [3]): -93% | growth at 100 µM [4]: -40% | growth at 0.01 µM (SF-539 [5]): 95% | GI50 [6]: 11.8 µM | LC50 (concentration killing 50% of cells) [6]: 81.8 µM | TGI [6]: 31.1 µM | growth at 0.01 µM (HOP-62 [7]): 101% | growth at 0.01 µM (SK-MEL-5): 96% | growth at 100 µM (ACHN): -92% | growth at 0.01 µM (MDA-MB-231 [8]): 100% | growth at 1 µM (NCI-H226 [9]): 94% | growth at 1 µM (LOX IMVI): 88% | growth at 0.1 µM [10]: 90% | growth at 1 µM (MDA-MB-231 [11]): 91% | growth at 0.1 µM (Malme-3M): 86% | GI50 [12]: 2.96 µM | LC50 (lethal concentration, 50% cell kill) [12]: 35.2 µM | TGI [12]: 9.51 µM | GI50 (NCI-H23): 2.55 µM | LC50 (NCI-H23): 21.8 µM | TGI (NCI-H23): 6.08 µM | growth at 100 µM (MCF7): -92% | growth at 100 µM (NCI-H322M): -69% | GI50 (T47D): 1.78 µM | LC50 (concentration killing 50% of cells) (T47D): 8.12 µM | TGI (T47D): 3.8 µM | growth at 100 µM (IGROV-1): -99% | GI50 (SF-539 [13]): 4.47 µM | TGI (SF-539 [13]): 15.9 µM | CC50 (SF-539 [13]): 39.9 µM | growth at 0.01 µM (MDA-MB-435 [14]): 97% | growth at 0.01 µM (SNB-75): 79% | growth at 100 µM (SN12C): -100% | growth at 1 µM (SNB-19 [15]): 95% | growth at 0.01 µM (SNB-19 [16]): 99% | growth at 0.1 µM (U-251 [17]): 88% | GI50 (NCI-H460): 2.06 µM | TGI (NCI-H460): 4.3 µM | CC50 (NCI-H460): 8.95 µM | growth at 0.1 µM (TK-10 [18]): 79% | growth at 1 µM (HOP-62 [19]): 97% | GI50 (COLO 205): 1.79 µM | TGI (COLO 205): 3.19 µM | CC50 (COLO 205): 5.7 µM | growth at 0.01 µM (SW-620): 97% | growth at 0.1 µM [20]: 92% | growth at 1 µM (U-251 [21]): 88%

CC(C)=CCC[C@H](C)c1ccc(C)c(CNCC2CCNCC2)c1O
growth at 1 µM (TK-10 [1]): 99% | GI50 (MDA-MB-435 [2]): 3.71 µM | TGI (MDA-MB-435 [2]): 8.44 µM | CC50 (MDA-MB-435 [2]): 19.2 µM | growth at 1 µM (A498): 79% | growth at 100 µM (NCI-H226 [3]): 37% | growth at 100 µM [4]: 35% | growth at 0.01 µM (SF-539 [5]): 96% | GI50 [6]: 6.82 µM | LC50 (concentration killing 50% of cells) [6]: > 25 µM | TGI [6]: > 25 µM | growth at 0.01 µM (HOP-62 [7]): 96% | growth at 0.01 µM (SK-MEL-5): 93% | growth at 100 µM (ACHN): -34% | growth at 0.01 µM (MDA-MB-231 [8]): 105% | growth at 1 µM (NCI-H226 [9]): 86% | growth at 1 µM (LOX IMVI): 98% | growth at 0.1 µM [10]: 103% | growth at 1 µM (MDA-MB-231 [11]): 104% | growth at 0.1 µM (Malme-3M): 89% | GI50 [12]: 19.8 µM | LC50 (lethal concentration, 50% cell kill) [12]: > 25 µM | TGI [12]: > 25 µM | GI50 (NCI-H23): > 25 µM | LC50 (NCI-H23): > 25 µM | TGI (NCI-H23): > 25 µM | growth at 100 µM (MCF7): -89% | growth at 100 µM (NCI-H322M): 13% | GI50 (T47D): 4.33 µM | LC50 (concentration killing 50% of cells) (T47D): 18.1 µM | TGI (T47D): 8.86 µM | growth at 100 µM (IGROV-1): 24% | GI50 (SF-539 [13]): 4.07 µM | TGI (SF-539 [13]): 8.32 µM | CC50 (SF-539 [13]): 17 µM | growth at 0.01 µM (MDA-MB-435 [14]): 100% | growth at 0.01 µM (SNB-75): 90% | growth at 100 µM (SN12C): 39% | growth at 1 µM (SNB-19 [15]): 93% | growth at 0.01 µM (SNB-19 [16]): 92% | growth at 0.1 µM (U-251 [17]): 93% | GI50 (NCI-H460): 4.45 µM | TGI (NCI-H460): 9.23 µM | CC50 (NCI-H460): 19.1 µM | growth at 0.1 µM (TK-10 [18]): 92% | growth at 1 µM (HOP-62 [19]): 97% | GI50 (COLO 205): 3.98 µM | TGI (COLO 205): 7.57 µM | CC50 (COLO 205): 14.4 µM | growth at 0.01 µM (SW-620): 100% | growth at 0.1 µM [20]: 98% | growth at 1 µM (U-251 [21]): 94%
